{"source": "patent US11123426B2", "about": "“Use of vista agonists and antagonists to suppress or enhance humoral immunity” (THE TRUSTEES OF DARTMOUTH COLLEGE, priority 2014, dated 2021)", "assay_type_in_all_cases": "cell-based, mice", "key": {"[1]": {"tested_on": "Ly6C+CD11b+ MDSCs", "assay": "3H-thymidine proliferation assay: MDSC suppression of B-cell responsiveness with VISTA−/− responder spleen cells (α-CD40 and IL-4)", "conditions": "FIG. 5A", "procedure": "(§1) 3H-Thymidine incorporation proliferation assays. For responder cells, 5×10^5 non-infected spleen cells, which were either non-fractionated or CD19+ purified, were plated into 96 well flat bottom plates along with 1.6×105 (unless otherwise indicated) CD11b+Ly6G+, or CD11b+Ly6C+, enriched suppressor cells obtained from spleens of 5-w.p.i. LP-BM5 mice of the indicated w.t. B6 or B6 knock-out strains. […] For the percent suppression calculation, first, the percent residual responsiveness (R) was calculated as follows: R=(cpm of co-cultured responder cells and experimental suppressor cells)[…](cpm of co-cultured responder cells and control, non-infected suppressor cells)×100%. Standard deviations of the mean were determined for triplicate wells, and were statistically compared by the two-tailed, two sample equal variance, Student T test. […]\nThis example relates to the experiments in FIG. 5. […] The % suppression was calculated for both (A) and (B) by cpm responder 3H thymidine incorporation. […]"}, "[2]": {"tested_on": "Ly6C+CD11b+ MDSCs", "assay": "3H-thymidine proliferation assay: MDSC suppression of T-cell responsiveness, w.t. B6 responder spleen cells stimulated with Con A", "conditions": "FIG. 2B, MDSCs pretreated with 0.8 mM L-NMMA or 80 ug/ml α-VISTA (13F3), R:S 3:1, three days", "procedure": "as §1"}, "[3]": {"tested_on": "monocytic MDSCs (Ly6C+CD11b+)", "assay": "CFSE dilution proliferation assay of CD19+ B cells with monocytic MDSCs", "conditions": "FIG. 4, w.t. MDSCs, CFSE labeled VISTA−/− responders", "procedure": "CFSE dilution proliferation assays. Naïve responder splenocytes were labeled with 5.iM CFSE (Cell trace, CFSE proliferation Kit, Molecular Probes, Eugene, Oreg.) in PBS/0.5% BSA for 10 minutes at 37° C. followed by the addition of cold 10% FBS in RPM1 for 5 minutes on ice. After three cold 10% FCS/RPMI washes, cell cultures were set up in the same manner as that for the 3H-thymidine incorporation proliferation assays described above. On culture day 4, wells were stained with monoclonal antibody (mAb): ct-CD19-PerCP (Biolegend, San Diego, Calif.) and were analyzed on a FACSCalibur flow cytometer (BD bioscience, San Jose, Calif.).\nThis example relates to the experiments in FIG. 4. In these experiments purified monocytic MDSCs (Ly6C+CD11b+) from 5 week LP-BM5 infected mice of the indicated strains, show differing patterns of suppression of naïve VISTA−/− spleen cell proliferation as assessed by flow cytometry. CFSE labeled VISTA−/− responder cells were cultured for […] in the presence (+) or absence (−) of ct-CD40+ IL-4, and with or without monocytic MDSCs (a) (−); (b) (+) (grey shaded curves); (c) (+), W.t. MDSCs (in black open curves); (d) (+), DNMMA treated W.t. […] MDSCs; Cells from all cultures were stained at the termination of a four day incubation, with ct-CD19 fluorochrome conjugated mAb and CFSE dilution was also assessed by FACS. […]"}, "[4]": {"tested_on": "Ly6C+CD11b+ MDSCs", "assay": "3H-thymidine proliferation assay: MDSC suppression of B-cell responsiveness, w.t. B6 responder spleen cells stimulated with α-CD40 and IL-4", "conditions": "FIG. 2A; MDSCs pretreated one hour with 0.8 mM L-NMMA or 80 ug/ml α-VISTA (13F3); R:S 3:1; three days", "procedure": "as §1"}}, "data": [{"smiles": "CNC(=N)NCCC[C@H](N)C(=O)O", "note": "[LNMMA, NG-monomethyl-L-Arginine]", "values": [{"measurement": "extent of blocking of VISTA−/− MDSC suppression of B-cell responsiveness", "setting": "[1]; MDSC of VISTA−/− origin", "result": "~100", "unit": "%"}, {"measurement": "blocking of w.t. MDSC suppression of B-cell responsiveness", "setting": "[1]; w.t. MDSC", "result": "partially blocked"}, {"measurement": "blocking of MDSC suppression of T-cell responsiveness", "setting": "[2]", "result": "essentially completely dependent on iNOS/NO"}, {"measurement": "restoration of B-cell proliferation curve towards control B cells stimulated in absence of MDSCs (CFSE)", "setting": "[3]", "result": "partially restored"}, {"measurement": "blocking of MDSC suppression of B-cell responsiveness", "setting": "[4]", "result": "~50", "unit": "%"}]}]}
